Among the data in patent US8012956B2, “Tropane compounds” (Exelixis, Inc., priority 2007, dated 2011) are IC50 values, retold here.

Molecules are shown by their SMILES. pIC50: −log10 of the molar value.

For orientation: pIC50 means the negative decadic logarithm of the IC50, by convention in mol/L. Lower therefore signals a high IC50.

The test deals with HSP90 (Homo sapiens, UniProt P07900). The test can be described thus: HSP90 inhibition (HSP90 IC50). It counts as biochemical.
`CC(=O)c1ccc(N2[C@@H]3CC[C@H]2C[C@@H](NC(=O)c2ccc(C(N)=O)c(NC4CCNCC4)c2)C3)nc1` [N4-[8-(5-acetylpyridin-2-yl)-8-azabicyclo[3.2.1]oct-3-endo-yl]-2-(piperidin-4-ylamino)benzene-1,4-dicarboxamide] had a negative-log IC50 (pIC50) greater than 6.30.

In turn, `CC(=O)c1ccc(N2[C@@H]3CC[C@H]2C[C@@H](NC(=O)c2ccc(C(N)=O)c(N)c2)C3)nc1` [N4-[8-(5-acetylpyridin-2-yl)-8-azabicyclo[3.2.1]oct-3-endo-yl]-2-aminobenzene-1,4-dicarboxamide] showed a pIC50 of 6.00 to 6.30.

Take `C#CCNC(=O)c1ccc(N2[C@@H]3CC[C@H]2C[C@@H](NC(=O)c2cccc(OC)c2C)C3)nc1` [6-[3-endo-({[2-methyl-3-(methyloxy)phenyl)carbonyl}amino)-8-azabicyclo(3.2.1]oct-8-yl]-N-prop-2-yn-1-ylpyridine-3-carboxamide]: the negative-log IC50 (pIC50) is 5.70 to 6.00.

On to `CNC(=O)c1ccc(N2[C@@H]3CC[C@H]2C[C@@H](NC(=O)c2cccc(OC)c2C)C3)nc1` [N-methyl-6-[3-endo-({[2-methyl-3-(methyloxy)phenyl]carbonyl}amino)-8-azabicyclo[3.2.1]oct-8-yl]pyridine-3-carboxamide], for which the pIC50 is 5.70 to 6.00.

In turn, `CCC(CC)Nc1cc(C(=O)N[C@H]2C[C@H]3CC[C@@H](C2)N3c2ccc(C(=O)C3CC3)cn2)ccc1C(N)=O` [N4-{8-[5-(cyclopropylcarbonyl)pyridin-2-yl]-8-azabicyclo[3.2.1]oct-3-endo-yl}-2-[(1-ethylpropyl)amino]benzene-1,4-dicarboxamide] gave a pIC50 greater than 6.30.

In turn, `CC(=O)c1ccc(N2[C@@H]3CC[C@H]2C[C@@H](NC(=O)c2ccc(C(N)=O)c(NCC(C)C)c2)C3)nc1` [N4-[8-(5-acetylpyridin-2-yl)-8-azabicyclo[3.2.1]oct-3-endo-yl]-2-[(2-methylpropyl)amino]benzefle-1,4-dicarboxamide] showed a negative-log IC50 (pIC50) greater than 6.30.

The compound `NC(=O)c1cc(Br)c(C(=O)N[C@H]2C[C@H]3CC[C@@H](C2)N3c2ccc(C(=O)C3CC3)cn2)cc1NCC1CC1` [2-bromo-N-{8-[5-(cyclopropylcarbonyl)pyridin-2-yl]-8-azabicyclo[3.2.1]oct-3-endo-yl}-5-[(cyclopropylmethyl)amino]benzene-1,4-dicarboxamide] showed a negative logarithm of the IC50 (pIC50) greater than 6.30.

`COc1cccc(C(=O)N[C@H]2C[C@H]3CC[C@@H](C2)N3c2ccc(C(=O)NCc3ccccc3)cn2)c1CCCNC(C)C` [6-[3-endo-({[2-{3-[(1-methylethyl)amino]propyl}-3-(methyloxy)phenyl]carbonyl}amino)-8-azabicyclo[3.2.1]oct-8-yl]-N-(phenylmethyl)pyridine-3-carboxamide] showed a pIC50 of 5.70 to 6.00.

Consider `CC(C)Nc1cc(C(=O)N[C@H]2C[C@H]3CC[C@@H](C2)N3c2ccc(C(=O)C3CC3)cn2)c(Br)cc1C(N)=O` [2-bromo-N-{8-(5-(cyclopropylcarbonyl)pyridin-2-yl]-8-azabicyclo[3.2.1]oct-3-endo-yl}-5-[(1-methylethyl)amino]benzene-1,4-dicarboxamide], for which the negative logarithm of the IC50 (pIC50) was greater than 6.30.

Compound `CCNc1cc(C(=O)N[C@H]2C[C@H]3CC[C@@H](C2)N3c2ccc(C(C)=O)cn2)ccc1C(N)=O` [N4-[8-(5-acetylpyridin-2-yl)-8-azabicyclo[3.2.1]oct-3-endo-yl]-2-(ethylamino)benzene-1,4-dicarboxamide] gave a pIC50 greater than 6.30.

On to `COc1cccc(C(=O)NC2CC3CCC(C2)N3c2ccc(C(=O)N[C@H]3CCCC[C@@H]3O)cn2)c1C` (stereo partly drawn) [N-[(1S,2S)-2-hydroxycyclohexyl]-6-[3-endo-({[2-methyl-3-(methyloxy)phenyl]carbonyl}amino)-8-azabicyclo[3.2.1]oct-8-yl]pyridlne-3-carboxamide], for which the negative-log IC50 (pIC50) is 5.00 to 5.70.

`CC(C)OCCNc1cc(C(=O)N[C@H]2C[C@H]3CC[C@@H](C2)N3c2ccc(C(=O)C3CC3)cn2)ccc1C(N)=O` [N4-{8-[5-(cyclopropylcarbonyl)pyridin-2-yl]-8-azabicyclo[3.2.1]oct-3-endo-yl}-2-({2-[(1-methylethyl)oxy]ethyl}amino)benzene-1,4-dicarboxamide] gave a pIC50 greater than 6.30.

In the case of `CC(=O)c1ccc(N2[C@@H]3CC[C@H]2C[C@@H](NC(=O)c2ccc(C(N)=O)c(NCC4CCCNC4)c2)C3)nc1` (stereo partly drawn) [N4-(8-(5-acetylpyridin-2-yl)-8-azabicyclo[3.2.1]oct-3-endo-yl]-2-[(piperidin-3-ylmethyl)amino]benzene-1,4-dicarboxamide], the pIC50 was greater than 6.30.

As for `COc1cccc(C(=O)N[C@H]2C[C@H]3CC[C@@H](C2)N3c2ccc(C(=O)NCc3ccc(F)cc3F)cn2)c1C` [N-[(2,4-difluorophenyl)methyl]-6-[3-endo-({[2-methyl-3-(methyloxy)phenyl]carbonyl}amino)-8-azabicyclo[3.2.1]oct-8-yl]pyridine-3-carboxamide], the pIC50 was greater than 6.30.

Compound `COc1cccc(C(=O)NC2CC3CCC(C2)N3c2ccc(C(=O)NCC3COC(C)(C)O3)cn2)c1C` (stereo not drawn) [N-[(2,2-dimethyl-1,3-dioxolan-4-yl)methyl]-6-[3-endo-({[2-methyl-3-(methyloxy)phenyl]carbonyl}amino)-8-azabicyclo[3.2.1]oct-8-yl]pyridine-3-carboxamide] gave a pIC50 of 5.00 to 5.70.

`COc1cccc(C(=O)N[C@H]2C[C@H]3CC[C@@H](C2)N3c2ccc(C(=O)NCCSC)cn2)c1C` [6-[3-endo-({[2-methyl-3-(methyloxy)phenyl]carbonyl}amino)-8-azabicyclo[3.2.1]oct-8-yl]-N-[2-(methylthio)ethyl]pyridine-3-carboxamide]: the negative logarithm of the IC50 (pIC50) was 5.70 to 6.00.

For `CCC(Nc1cc(C(=O)N[C@H]2C[C@H]3CC[C@@H](C2)N3c2ccc(C(=O)C3CC3)cn2)c(C)cc1C(N)=O)C1CC1` (stereo partly drawn) [N-{8-(5-(cyclopropylcarbonyl)pyridin-2-yl]-8-azabicyclo[3.2.1]oct-3-endo-yl}-5-[(1-cyclopropylpropyl)amino]-2-methylbenzene-1,4-dicarboxamide], the pIC50 was greater than 6.30.

`Cc1cc(C(N)=O)c(NC(C)C)cc1C(=O)N[C@H]1C[C@H]2CC[C@@H](C1)N2c1ccc(C(=O)C2CC2)cn1` [N-{8-[5-(cyclopropylcarbonyl)pyridin-2-yl]-8-azabicyclo[3.2.1]oct-3-endo-yl}-2-methyl-5-[(1-methylethyl)amino]benzene-1,4-dicarboxamide] had a negative-log IC50 (pIC50) greater than 6.30.

For the compound `COc1ccc([C@@H](C)NC(=O)c2ccc(N3C4CCC3CC(NC(=O)c3cccc(OC)c3C)C4)nc2)cc1` (stereo partly drawn) [6-[3-endo-({[2-methyl-3-(methyloxy)phenyl]carbonyl}amino)-8-azabicyclo[3.2.1]oct-8-yl]-N-{(1R)-1-[4-(methyloxy)phenyl]ethyl}pyridine-3-carboxamide], the pIC50 is 5.00 to 5.70.

For `COc1ccc(C(C)NC(=O)c2ccc(N3[C@@H]4CC[C@H]3C[C@@H](NC(=O)c3cccc(OC)c3C)C4)nc2)cc1OC` (stereo partly drawn) [N-{1-[3,4-bis(methyloxy)phenyl]ethyl}-6-[3-endo-({[2-methyl-3-(methyloxy)phenyl]carbonyl}amino)-8-azabicyclo[3.2.1]oct-8-yl]pyridine-3-carboxamide], the negative logarithm of the IC50 (pIC50) was 6.00 to 6.30.

Compound `CCC(CC)Nc1cc(C(=O)NC2CC3CCC(C2)N3c2ccc(C(=O)NCC3CCCN3CC)cn2)c(C)cc1C(N)=O` (stereo not drawn) [5-[(1-ethylpropyl)amino]-N-{8-[5-({[(1-ethylpyrrolidin-2-yl)methyl]amino}carbonyl)pyridin-2-yl]-8-azabicyclo[3.2.1]oct-3-endo-yl}-2-methylbenzene-1,4-dicarboxamide] showed a pIC50 greater than 6.30.

The compound `CC[C@H](C)Nc1cc(C(=O)NC2CC3CCC(C2)N3c2ccc(C(=O)C3CC3)cn2)c(C)cc1C(N)=O` (stereo partly drawn) [N-{8-[5-(cyclopropylcarbonyl)pyridine-2-yl]-8-azabicyclo[3.2.1]oct-3-endo-yl}-2-methyl-5-{[(1S)-1-methylpropyl]amino}benzene-1,4-dicarboxamide] had a negative-log IC50 (pIC50) greater than 6.30.

Compound `CCC(CC)Nc1cc(C(=O)N[C@H]2C[C@H]3CC[C@@H](C2)N3c2ccc(C(=O)C3CC3)cn2)c(F)cc1C(N)=O` [N-{8-[5-(cyclopropylcarbonyl)pyridin-2-yl]-8-azabicyclo[3.2.1]oct-3-endo-yl}-5-[(1-ethylpropyl)amino]-2-fluorobenzene-1,4-dicarboxamide] had a negative-log IC50 (pIC50) greater than 6.30.

`COc1cccc(C(=O)NC2CC3CCC(C2)N3c2ccc(C(=O)NC[C@H](C)O)cn2)c1C` (stereo partly drawn) [N-[(2S)-2.hydroxypropyl]-6-[3-endo-({[2-methyl-3-(methyloxy)phenyl]carbonyl}amino)-8-azabicyclo[3.2.1]oct-8-yl]pyridine-3-carboxamide] had a pIC50 of 5.00 to 5.70.

For the compound `NC(=O)c1ccc(C(=O)N[C@H]2C[C@H]3CC[C@@H](C2)N3c2ccc(C(=O)NCc3ccccc3)cn2)cc1` [N-[8-(5-{[(phenylmethyl)amino]carbonyl}pyridin-2-yl)-8-azabicyclo[3.2.1]oct-3-endo-yl]benzene-1,4-dicarboxamide], the pIC50 is greater than 6.30.

Consider `CCC(CC)Nc1cc(C(=O)N[C@H]2C[C@H]3CC[C@@H](C2)N3c2ccc(C(C)=O)cn2)c(C)cc1C(N)=O`, for which the pIC50 is greater than 6.30.

On to `COc1ccc(NC(=O)c2ccc(N3[C@@H]4CC[C@H]3C[C@@H](NC(=O)c3cccc(OC)c3C)C4)nc2)cc1` [6-[3-endo-({[2-methyl-3-(methyloxy)phenyl]carbonyl}amino)-8-azabicyclo[3.2.1]oct-8-yl]-N-[4-(methyloxy)phenyl]pyridine-3-carboxamide], for which the pIC50 was 6.00 to 6.30.

Compound `COc1cccc(C(=O)N[C@H]2C[C@H]3CC[C@@H](C2)N3c2ccc(C(=O)NCc3cnc(C)cn3)cn2)c1C` [6-[3-endo-({[2-methyl-3-(methyloxy)phenyl]carbonyl}amino)-8-azabicyclo[3.2.1]oct-8-yl]-N-[(5-methylpyrazin-2-yl)methyl]pyridine-3-carboxamide] had a pIC50 greater than 6.30.

The compound `CCN1CC[C@H](NC(=O)c2ccc(N3C4CCC3CC(NC(=O)c3cc(C)c(C(N)=O)cc3C)C4)nc2)C1` (stereo partly drawn) [N-{8-[5-({[(3S)-1-ethylpyrrolidin-3-yl]amino}carbonyl)pyridin-2-yl]-8-azabicyclo[3.2.1]oct-3-endo-yl}-2,5-dimethylbenzene-1,4-dicarboxamide] showed a negative logarithm of the IC50 (pIC50) greater than 6.30.
